The nature of data set [1]: Pharmacokinetics of sulfatinib in rats, DDI study with myricetin (UPLC-MS/MS of plasma). It is filed as in vivo, Sprague-Dawley (SD) rats. The method, then:
In the present assay, a Waters Xevo TQS triple quadrupole tandem mass spectrometer (Milford, MA, United States), connected to a Waters Acquity UPLC I class system (Milford, MA, United States) was applied in the method. The parameters of mass spectrometry were determined as follows before analysis: capillary voltage 2.0 kV, desolvation gas 1000 L/h, collision gas 0.15 mL/min, desolvation temperature 600°C and conical gas 150 L/h. Seperations of sulfatinib and IS were done on an Acquity UPLC BEH C18 (2.1 mm × 50 mm, 1.7 µm) set at 40°C. The autosampler used to analyze all samples was held at 10°C. The measurements were conducted using a multiple reaction monitoring (MRM) scanning mode with an electrospray ionization (ESI) source in positive ion mode. At a flow rate of 0.40 mL/min, the mobile phase was consisted of acetonitrile (A) and 0.1% formic acid aqueous solution (B), with a linear gradient scheme as follows: 0–0.5 min, A/B = 10/90%; 0.5–1.0 min, A/B = 90/10%; 1.0–1.4 min, A/B = 90/10%; 1.4–1.5 min, A/B = 10/90%; 1.5–2.0 min, A/B = 10/90%. The parameters optimized for mass spectrometry of sulfatinib and IS included cone voltages of 20 V and 30 V, and collision energies of 25 eV and 28 eV, respectively. The parent and daughter ions of sulfatinib and IS were m/z 480.98 → 329.02 and m/z 426.87 → 369.84, respectively (as indicated in Table 1).
The protein was precipitated by mixing 300 µL of acetonitrile and 10 µL of IS working solution into 100 µL of plasma. After a full vortex for 2.0 min, the mixture was centrifuged at 4°C for 10 min (13,000 rpm). Afterwards, the supernatant of 100 µL was moved into a vial, with a 2 µL injected and analyzed by UPLC-MS/MS.
Ten male Sprague-Dawley (SD) rats for this experiment, weighting 200 ± 10 g, were purchased from the Experimental Animal Center of The First Affiliated Hospital of Wenzhou Medical University (Zhejiang, China). Prior to the start of the investigation, all rats were domesticated under laboratory conditions for 1 week to minimize their suffering. The animals were kept in an appropriate environment (temperature, humidity, light conditions, freely available food and water). The experimental process of the animals was strictly adhered to the regulations for the care and use of laboratory animals as reviewed and approved by the Ethics Committee of The First Affiliated Hospital of Wenzhou Medical University (Wenzhou, China). The preparation of sulfatinib for gavage was carried out using 0.5% carboxymethylcellulose sodium (CMC-Na) solution. Half an hour after the administration of either myricetin or the same dose of 0.5% CMC-Na solution, 10 rats were simultaneously administered orally with sulfatinib (30 mg/kg). At 0.25, 0.5, 0.75, 1, 1.5, 2, 3, 4, 6, 8, 12, 24, 48 h, approximately 0.3 mL of blood was obtained from the tail vein of SD rats and transferred into heparinized polyethylene tubes. A 100 µL of plasma was obtained by centrifuging the blood at 13,000 rpm for 8 min and stored at −80°C for sample treatment.
Origin 9.0 (Originlab Inc., Northampton, MA, United States) was used in this experiment to plot the mean concentration of sulfatinib versus time in plasma. DAS software (Drug and Statistics, Version 3.0, China) was applied to fit the non-compartmental model of sulfatinib, and the main pharmacokinetic parameters of sulfatinib were obtained. Pharmacokinetics were compared for each group using SPSS software (version 24.0, Chicago, United States, SPSS Inc.) using the independent samples t-test. At p < 0.05, the difference was significant.

The subject of data set [2] is cytochrome P450 3A4 (CYP3A4). Also noted: method as in Li et al., 2020b. The note with it: in vitro; ref Li et al., 2020b; cited from earlier work.
Details of data set [3]: method as in Li et al., 2020a. The note with it: healthy subjects, single oral intake of 300 mg; ref Li et al., 2020a; cited from earlier work.
For data set [4] the following is noted: cited from earlier work.
A short description of data set [5]: Stability of sulfatinib in rat plasma QCs under storage and processing conditions. The note with it: analyzer 10°C for 4 h, −80°C for 3 weeks, room temperature for 3 h, three freeze-thaw cycles; QCs 2, 800, 1,600 ng/mL. The method, then: The stability was investigated by repeating the assay five times under different storage conditions for three rat plasma QCs (2, 800 and 1,600 ng/mL). The conditions included stability in the analyzer (4 h, 10°C), long-term storage ([…], 3 weeks), short-term storage (3 h, room temperature) and freeze-thaw cycles (three complete times).

A further data set relates to CYP3A4. Also noted: method as in Li et al., 2018. The conditions noted are these: studies in rats; ref Li et al., 2018; cited from earlier work.
The next data set concerns CYP2C9. Also noted: method as in Li et al., 2018. The note with it: studies in rats; ref Li et al., 2018; cited from earlier work.
Where [6] appears, read: male, Sprague-Dawley, rat, in vivo, po, 30 mg/kg.

Molecules are shown by their SMILES. Where two headings read alike, the source gives them in different places.

Take `Cc1cc2cc(Oc3ccnc(Nc4cccc(CS(=O)(=O)NCCN(C)C)c4)n3)ccc2[nH]1` [Sulfatinib]: in data set [1] (setting [6]), the AUC0→t is 9,168.6 ± 2,531.4 ng/mL·h; the “AUC0→∞” value is 9,171.6 ± 2,532.4 ng/mL·h; the CLz/F turned out to be 3.5 ± 1.1 L/h/kg; the Tmax (in general, the time from dosing to the highest level) is reported as 4.4 ± 0.9 h. Also, in data set [1] (male, Sprague-Dawley, rat, in vivo, po, 30 mg/kg, AUC0→t), the AUC(0-t) – broadly, exposure summed from dosing to a finite time, without extrapolation to infinity – is 9.25 µg·h/mL. The AUC(0-inf) (in general, total exposure, with the tail of the curve extrapolated) in data set [1] (male, Sprague-Dawley, rat, in vivo, po, 30 mg/kg, AUC0→∞) amounted to 9.26 µg·h/mL. The CL/F – broadly, the apparent clearance, not corrected for the fraction that reaches the circulation – in data set [1] (male, Sprague-Dawley, rat, in vivo, po, 30 mg/kg, CLz/F) was 3.3 L/h/kg. Besides, the Cmax (usually the highest concentration seen after dosing) in data set [1] (male, Sprague-Dawley, rat, in vivo, po, 30 mg/kg, Cmax) is 1.04 µg/mL. Further, the Tmax in data set [1] (male, Sprague-Dawley, rat, in vivo, po, 30 mg/kg, Tmax) amounted to 3.4 ± 1.7 h. Moreover, the half-life (in general, the time in which the quantity being followed falls by half) in data set [1] (male, Sprague-Dawley, rat, in vivo, po, 30 mg/kg, t1/2) is 3.64 h. Further, in data set [1] (rat, in vivo, po, 30 mg/kg), the AUC (as a rule, concentration integrated over time) is 8.97 µg·h/mL and the “time to Cmax” value was “approximately 3.8 h”. Further, the “enzyme mediating the metabolism” value in data set [2] was “major enzyme mediating the metabolism”. Besides, in data set [3], the AUC is 2.67 µg·h/mL, the Cmax was 0.205 µg/mL, the t1/2 is 17.1 h and the “time to Cmax” value is listed as “approximately 2 h”. In data set [4] (after oral administration, ref Li et al., 2020b), the “serum level of the original drug” value was “about 40.3%”. The fecal excretion in data set [4] (excretion route mainly fecal, ref Lu et al., 2024, Xu et al., 2017, Li et al., 2020a) is 88%. The “stability in rat plasma” value in data set [5] is given as “satisfied”.

For the molecule `O=c1c(O)c(-c2cc(O)c(O)c(O)c2)oc2cc(O)cc(O)c12` [myricetin, Myricetin], the “inhibition of CYP3A4” value with CYP3A4 was “inhibited”. For the same molecule, the “effect of myricetin on AUC0→∞ and Cmax of sulfatinib” value in data set [1] (rats, 50 mg/kg myricetin orally half an hour before 30 mg/kg sulfatinib, P > 0.05) is “no significant effect”. Further, the “inhibition of CYP2C9” value in the data set with CYP2C9 is “inhibited”.
